± gives the expanded uncertainty stated by the source.
Assay: xn = mol fraction of the nth substance listed
Conditions: 308.15 K, 101 kPa, Liquid; for excess molar volume: Direct dilatometry; for speed of sound: Sing-around technique in a fixed-path interferometer

With `O=C1CCCN1` [2-pyrrolidinone] + OCCO the excess molar volume (x2 = 0.0118) was 4e-09 ± 5e-09 m3/mol, the excess molar volume (x2 = 0.0271) was 1.1e-08 ± 5e-09 m3/mol and the excess molar volume (x2 = 0.0551) was 2.1e-08 ± 5e-09 m3/mol. The excess molar volume (x2 = 0.0711) was 2.4e-08 ± 5e-09 m3/mol, the excess molar volume (x2 = 0.0891) was 3.3e-08 ± 5e-09 m3/mol and the excess molar volume (x2 = 0.1123) was 3.6e-08 ± 5e-09 m3/mol. It also gave an excess molar volume (x2 = 0.1356) of 4.4e-08 ± 5e-09 m3/mol, an excess molar volume (x2 = 0.1467) of 5e-08 ± 5e-09 m3/mol and an excess molar volume (x2 = 0.1671) of 5.6e-08 ± 5e-09 m3/mol. It also gave an excess molar volume (x2 = 0.1927) of 6e-08 ± 5e-09 m3/mol, an excess molar volume (x2 = 0.2287) of 6.9e-08 ± 5e-09 m3/mol and an excess molar volume (x2 = 0.2682) of 8.3e-08 ± 5e-09 m3/mol. The excess molar volume (x2 = 0.3038) was 9.4e-08 ± 5e-09 m3/mol, the excess molar volume (x2 = 0.3336) was 1.01e-07 ± 5e-09 m3/mol and the excess molar volume (x2 = 0.4018) was 1.12e-07 ± 5e-09 m3/mol. For the same molecule, the excess molar volume (x2 = 0.4305) was 1.16e-07 ± 5e-09 m3/mol, the excess molar volume (x2 = 0.4785) was 1.21e-07 ± 5e-09 m3/mol and the excess molar volume (x2 = 0.4965) was 1.22e-07 ± 5e-09 m3/mol. The excess molar volume (x2 = 0.5172) was 1.22e-07 ± 5e-09 m3/mol, the excess molar volume (x2 = 0.543) was 1.23e-07 ± 5e-09 m3/mol and the excess molar volume (x2 = 0.5614) was 1.22e-07 ± 5e-09 m3/mol. The excess molar volume (x2 = 0.607) was 1.2e-07 ± 5e-09 m3/mol, the excess molar volume (x2 = 0.623) was 1.19e-07 ± 5e-09 m3/mol and the excess molar volume (x2 = 0.6414) was 1.17e-07 ± 5e-09 m3/mol. For the same molecule, the excess molar volume (x2 = 0.6694) was 1.15e-07 ± 5e-09 m3/mol, the excess molar volume (x2 = 0.6896) was 1.11e-07 ± 5e-09 m3/mol and the excess molar volume (x2 = 0.7154) was 1.08e-07 ± 5e-09 m3/mol. It also gave an excess molar volume (x2 = 0.7437) of 1.02e-07 ± 5e-09 m3/mol, an excess molar volume (x2 = 0.7579) of 1e-07 ± 5e-09 m3/mol and an excess molar volume (x2 = 0.7775) of 9.6e-08 ± 5e-09 m3/mol. For the same molecule, the excess molar volume (x2 = 0.8278) was 8.7e-08 ± 5e-09 m3/mol, the excess molar volume (x2 = 0.8424) was 8.4e-08 ± 5e-09 m3/mol and the excess molar volume (x2 = 0.8713) was 7.5e-08 ± 5e-09 m3/mol. It also gave an excess molar volume (x2 = 0.8846) of 7e-08 ± 5e-09 m3/mol, an excess molar volume (x2 = 0.8963) of 6.6e-08 ± 5e-09 m3/mol and an excess molar volume (x2 = 0.9107) of 5.9e-08 ± 5e-09 m3/mol. It also gave an excess molar volume (x2 = 0.9249) of 5.2e-08 ± 5e-09 m3/mol, an excess molar volume (x2 = 0.9349) of 4.4e-08 ± 5e-09 m3/mol and an excess molar volume (x2 = 0.9544) of 3.6e-08 ± 5e-09 m3/mol. It also gave an excess molar volume (x2 = 0.961) of 2.7e-08 ± 5e-09 m3/mol, an excess molar volume (x2 = 0.9747) of 1.8e-08 ± 5e-09 m3/mol and an excess molar volume (x2 = 0.9869) of 1.2e-08 ± 5e-09 m3/mol. The excess molar volume (x2 = 0.9976) was 4e-09 ± 5e-09 m3/mol, the speed of sound (x2 = 0.0351) was 1600.6 ± 1.4 m/s and the speed of sound (x2 = 0.0613) was 1601.1 ± 1.3 m/s. For the same molecule, the speed of sound (x2 = 0.0816) was 1601.4 ± 1.3 m/s, the speed of sound (x2 = 0.1155) was 1601.9 ± 1.3 m/s and the speed of sound (x2 = 0.1641) was 1602.4 ± 1.3 m/s. It also gave a speed of sound (x2 = 0.2134) of 1602.9 ± 1.3 m/s, a speed of sound (x2 = 0.3111) of 1604.5 ± 1.2 m/s and a speed of sound (x2 = 0.3866) of 1605.8 ± 1.2 m/s. The speed of sound (x2 = 0.5068) was 1607.7 ± 1.2 m/s, the speed of sound (x2 = 0.6039) was 1610 ± 1.2 m/s and the speed of sound (x2 = 0.7046) was 1613.5 ± 1.1 m/s. It also gave a speed of sound (x2 = 0.8015) of 1617.8 ± 1.1 m/s, a speed of sound (x2 = 0.8495) of 1620.3 ± 1.1 m/s and a speed of sound (x2 = 0.8974) of 1624.1 ± 1.1 m/s. For the same molecule, the speed of sound (x2 = 0.9233) was 1626 ± 1.1 m/s, the speed of sound (x2 = 0.9458) was 1627.7 ± 1.1 m/s and the speed of sound (x2 = 0.9731) was 1631 ± 1.1 m/s. For the same molecule, the viscosity (x2 = 0.0351) was 8.955 ± 0.17 mPa·s, the viscosity (x2 = 0.0613) was 9.037 ± 0.18 mPa·s and the viscosity (x2 = 0.0816) was 9.118 ± 0.18 mPa·s. For the same molecule, the viscosity (x2 = 0.1155) was 9.255 ± 0.18 mPa·s, the viscosity (x2 = 0.1641) was 9.302 ± 0.18 mPa·s and the viscosity (x2 = 0.2134) was 9.358 ± 0.18 mPa·s. It also gave a viscosity (x2 = 0.3111) of 9.487 ± 0.18 mPa·s, a viscosity (x2 = 0.3866) of 9.654 ± 0.18 mPa·s and a viscosity (x2 = 0.5068) of 9.833 ± 0.19 mPa·s. For the same molecule, the viscosity (x2 = 0.6039) was 9.963 ± 0.19 mPa·s, the viscosity (x2 = 0.7046) was 10.04 ± 0.19 mPa·s and the viscosity (x2 = 0.8015) was 10.29 ± 0.19 mPa·s. The viscosity (x2 = 0.8495) was 10.5 ± 0.2 mPa·s, the viscosity (x2 = 0.8974) was 10.75 ± 0.2 mPa·s and the viscosity (x2 = 0.9233) was 10.83 ± 0.2 mPa·s. The viscosity (x2 = 0.9458) was 11.05 ± 0.2 mPa·s and the viscosity (x2 = 0.9731) was 11.14 ± 0.21 mPa·s.
With `OCCCO` [propan-1,3-diol] + O=C1CCCN1 the excess molar volume (x1 = 0.0149) was 7e-09 ± 5e-09 m3/mol, the excess molar volume (x1 = 0.0255) was 1e-08 ± 5e-09 m3/mol and the excess molar volume (x1 = 0.0582) was 1.6e-08 ± 5e-09 m3/mol. For the same molecule, the excess molar volume (x1 = 0.0669) was 1.8e-08 ± 5e-09 m3/mol, the excess molar volume (x1 = 0.0811) was 1.9e-08 ± 5e-09 m3/mol and the excess molar volume (x1 = 0.0944) was 1.9e-08 ± 5e-09 m3/mol. The excess molar volume (x1 = 0.1161) was 2.2e-08 ± 5e-09 m3/mol, the excess molar volume (x1 = 0.133) was 2.3e-08 ± 5e-09 m3/mol and the excess molar volume (x1 = 0.1507) was 2.5e-08 ± 5e-09 m3/mol. For the same molecule, the excess molar volume (x1 = 0.1752) was 2.6e-08 ± 5e-09 m3/mol, the excess molar volume (x1 = 0.2346) was 2.7e-08 ± 5e-09 m3/mol and the excess molar volume (x1 = 0.2749) was 2.8e-08 ± 5e-09 m3/mol. The excess molar volume (x1 = 0.3232) was 2.9e-08 ± 5e-09 m3/mol, the excess molar volume (x1 = 0.399) was 2.8e-08 ± 5e-09 m3/mol and the excess molar volume (x1 = 0.4472) was 2.5e-08 ± 5e-09 m3/mol. For the same molecule, the excess molar volume (x1 = 0.4784) was 2.5e-08 ± 5e-09 m3/mol, the excess molar volume (x1 = 0.4826) was 2.4e-08 ± 5e-09 m3/mol and the excess molar volume (x1 = 0.4941) was 2.4e-08 ± 5e-09 m3/mol. The excess molar volume (x1 = 0.518) was 2.2e-08 ± 5e-09 m3/mol, the excess molar volume (x1 = 0.537) was 2.1e-08 ± 5e-09 m3/mol and the excess molar volume (x1 = 0.5552) was 2.1e-08 ± 5e-09 m3/mol. For the same molecule, the excess molar volume (x1 = 0.5751) was 1.8e-08 ± 5e-09 m3/mol, the excess molar volume (x1 = 0.6011) was 1.5e-08 ± 5e-09 m3/mol and the excess molar volume (x1 = 0.6281) was 1.3e-08 ± 5e-09 m3/mol. For the same molecule, the excess molar volume (x1 = 0.6505) was 1e-08 ± 5e-09 m3/mol, the excess molar volume (x1 = 0.6707) was 9e-09 ± 5e-09 m3/mol and the excess molar volume (x1 = 0.6824) was 8e-09 ± 5e-09 m3/mol. The excess molar volume (x1 = 0.7028) was 4e-09 ± 5e-09 m3/mol, the excess molar volume (x1 = 0.7232) was 1e-09 ± 5e-09 m3/mol and the excess molar volume (x1 = 0.746) was -2e-09 ± 5e-09 m3/mol. For the same molecule, the excess molar volume (x1 = 0.7719) was -4e-09 ± 5e-09 m3/mol, the excess molar volume (x1 = 0.791) was -6e-09 ± 5e-09 m3/mol and the excess molar volume (x1 = 0.8126) was -8e-09 ± 5e-09 m3/mol. The excess molar volume (x1 = 0.8237) was -1e-08 ± 5e-09 m3/mol, the excess molar volume (x1 = 0.8409) was -1.3e-08 ± 5e-09 m3/mol and the excess molar volume (x1 = 0.853) was -1.6e-08 ± 5e-09 m3/mol. The excess molar volume (x1 = 0.8712) was -1.9e-08 ± 5e-09 m3/mol, the excess molar volume (x1 = 0.8823) was -2.1e-08 ± 5e-09 m3/mol and the excess molar volume (x1 = 0.8935) was -2.2e-08 ± 5e-09 m3/mol. It also gave an excess molar volume (x1 = 0.9116) of -2.4e-08 ± 5e-09 m3/mol, an excess molar volume (x1 = 0.9269) of -2.4e-08 ± 5e-09 m3/mol and an excess molar volume (x1 = 0.9355) of -2.3e-08 ± 5e-09 m3/mol. The excess molar volume (x1 = 0.9476) was -2.2e-08 ± 5e-09 m3/mol, the excess molar volume (x1 = 0.9599) was -2e-08 ± 5e-09 m3/mol and the excess molar volume (x1 = 0.9803) was -1.4e-08 ± 5e-09 m3/mol. It also gave an excess molar volume (x1 = 0.9887) of -1.2e-08 ± 5e-09 m3/mol, an excess molar volume (x1 = 0.9978) of -8e-09 ± 5e-09 m3/mol and a speed of sound (x1 = 0.0365) of 1600.9 ± 1.4 m/s. For the same molecule, the speed of sound (x1 = 0.059) was 1601.4 ± 1.4 m/s, the speed of sound (x1 = 0.0794) was 1602.1 ± 1.4 m/s and the speed of sound (x1 = 0.1005) was 1602.7 ± 1.4 m/s. It also gave a speed of sound (x1 = 0.1451) of 1603.5 ± 1.4 m/s, a speed of sound (x1 = 0.1944) of 1604.5 ± 1.4 m/s and a speed of sound (x1 = 0.3004) of 1606.2 ± 1.4 m/s. The speed of sound (x1 = 0.3994) was 1607.4 ± 1.4 m/s, the speed of sound (x1 = 0.4902) was 1608.2 ± 1.4 m/s and the speed of sound (x1 = 0.5828) was 1608.7 ± 1.4 m/s. For the same molecule, the speed of sound (x1 = 0.6833) was 1608.8 ± 1.4 m/s, the speed of sound (x1 = 0.7889) was 1608.3 ± 1.4 m/s and the speed of sound (x1 = 0.8265) was 1607.7 ± 1.4 m/s. For the same molecule, the speed of sound (x1 = 0.8909) was 1606.7 ± 1.4 m/s, the speed of sound (x1 = 0.9186) was 1606.4 ± 1.4 m/s and the speed of sound (x1 = 0.9422) was 1605.8 ± 1.4 m/s. The speed of sound (x1 = 0.9712) was 1605 ± 1.4 m/s, the viscosity (x1 = 0.0365) was 9.37 ± 0.18 mPa·s and the viscosity (x1 = 0.059) was 9.712 ± 0.19 mPa·s. The viscosity (x1 = 0.0794) was 9.969 ± 0.19 mPa·s, the viscosity (x1 = 0.1005) was 10.29 ± 0.2 mPa·s and the viscosity (x1 = 0.1452) was 10.9 ± 0.21 mPa·s. The viscosity (x1 = 0.1944) was 11.58 ± 0.22 mPa·s, the viscosity (x1 = 0.3005) was 13.29 ± 0.25 mPa·s and the viscosity (x1 = 0.3994) was 15.04 ± 0.28 mPa·s. The viscosity (x1 = 0.4902) was 16.76 ± 0.3 mPa·s, the viscosity (x1 = 0.5828) was 18.38 ± 0.33 mPa·s and the viscosity (x1 = 0.6833) was 20.23 ± 0.36 mPa·s. For the same molecule, the viscosity (x1 = 0.7889) was 22.45 ± 0.4 mPa·s, the viscosity (x1 = 0.8265) was 23.24 ± 0.41 mPa·s and the viscosity (x1 = 0.8909) was 24.43 ± 0.43 mPa·s. For the same molecule, the viscosity (x1 = 0.9186) was 24.98 ± 0.44 mPa·s, the viscosity (x1 = 0.9422) was 25.52 ± 0.45 mPa·s and the viscosity (x1 = 0.9712) was 26.02 ± 0.46 mPa·s.
